Laboratory results published in PubChem BioAssay (NCI).
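Growth conditions: 96-well plates. Treatment: test compound, 48 hours, 5 concentrations. Analysis: linear interpolation between bracketing concentrations; unreached endpoints set to highest concentration. Definition used: TGI = concentration required for complete inhibition of growth.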

Legend:
Experiment in all cases: growth of human tumour cells (NCI), 48 h
KM12 colon = tested on: KM12 colon
SK-MEL-5 melanoma = tested on: SK-MEL-5 melanoma
MDA-MB-435 = tested on: MDA-MB-435
HCT-15 colon = tested on: HCT-15 colon
HCC-2998 colon = tested on: HCC-2998 colon
HL-60(TB) leukemia = tested on: HL-60(TB) leukemia
A549 NSCLC = tested on: A549 NSCLC
SF-295 CNS = tested on: SF-295 CNS
MDA-MB-231 breast = tested on: MDA-MB-231 breast
786-0 renal = tested on: 786-0 renal

COc1ccc(N2CN(C)CSC2=S)cc1
TGI (KM12 colon): > 100 µM
TGI (SK-MEL-5 melanoma): > 100 µM
TGI (MDA-MB-435): > 100 µM
TGI (HCT-15 colon): > 100 µM
TGI (HCC-2998 colon): > 100 µM
TGI (HL-60(TB) leukemia): > 100 µM
TGI (A549 NSCLC): > 100 µM
TGI (SF-295 CNS): 86.2 µM
TGI (MDA-MB-231 breast): > 100 µM

Cc1c(OCCCOc2ccc3c(=O)cc(-c4ccccc4)oc3c2C)ccc2c(=O)cc(-c3ccccc3)oc12
TGI (KM12 colon): > 100 µM
TGI (SK-MEL-5 melanoma): > 100 µM
TGI (HCT-15 colon): > 100 µM
TGI (786-0 renal): > 100 µM
TGI (HL-60(TB) leukemia): > 100 µM
TGI (A549 NSCLC): > 100 µM
TGI (SF-295 CNS): > 100 µM

C=CCOC(=O)c1c(C)n([O-])c2cc(Cl)c(Cl)cc2[n+]1=O
TGI (KM12 colon): 84.7 µM
TGI (SK-MEL-5 melanoma): 36.8 µM
TGI (MDA-MB-435): 41.2 µM
TGI (HCT-15 colon): 31.7 µM
TGI (HCC-2998 colon): 26.5 µM
TGI (786-0 renal): 60.1 µM
TGI (HL-60(TB) leukemia): 48.7 µM
TGI (A549 NSCLC): 87.7 µM
TGI (SF-295 CNS): 86.9 µM
TGI (MDA-MB-231 breast): 55 µM

O=C1C(C(c2ccc([N+](=O)[O-])cc2)N2CCOCC2)=C(O)C(c2ccccc2)N1c1ccccc1 (configuration not stated)
TGI (KM12 colon): > 10 µM
TGI (SK-MEL-5 melanoma): > 10 µM
TGI (MDA-MB-435): > 10 µM
TGI (HCT-15 colon): > 10 µM
TGI (HCC-2998 colon): > 10 µM
TGI (786-0 renal): > 10 µM
TGI (HL-60(TB) leukemia): > 10 µM
TGI (A549 NSCLC): > 10 µM
TGI (SF-295 CNS): > 10 µM
TGI (MDA-MB-231 breast): > 10 µM

Nc1ncnc2c1ncn2C1OC(CO)C(O)C1NS(=O)(=O)c1ccccc1 (configuration not stated)
TGI (KM12 colon): > 100 µM
TGI (SK-MEL-5 melanoma): > 100 µM
TGI (MDA-MB-435): > 100 µM
TGI (HCT-15 colon): > 100 µM
TGI (HCC-2998 colon): > 100 µM
TGI (786-0 renal): > 100 µM
TGI (HL-60(TB) leukemia): > 100 µM
TGI (A549 NSCLC): > 100 µM
TGI (SF-295 CNS): > 100 µM
TGI (MDA-MB-231 breast): > 100 µM

Cc1ccc2n(c1)cc(-c1ccc(/C=N/NC(=N)N/N=C/c3ccc(-c4cn5cc(C)ccc5[n+]4C)cc3)cc1)[n+]2C
TGI (KM12 colon): > 100 µM
TGI (SK-MEL-5 melanoma): > 100 µM
TGI (MDA-MB-435): > 100 µM
TGI (HCT-15 colon): > 100 µM
TGI (HCC-2998 colon): > 100 µM
TGI (786-0 renal): > 100 µM
TGI (HL-60(TB) leukemia): > 100 µM
TGI (A549 NSCLC): > 100 µM
TGI (SF-295 CNS): > 100 µM
TGI (MDA-MB-231 breast): > 100 µM

CCOC(=O)CCC(NC(=O)c1ccc(Nc2nc3cc(C(F)(F)F)ccc3nc2C(=O)OCC)cc1)C(=O)OCC (configuration not stated)
TGI (SK-MEL-5 melanoma): 93 µM
TGI (MDA-MB-435): 21.9 µM
TGI (HCT-15 colon): > 100 µM
TGI (HCC-2998 colon): > 100 µM
TGI (786-0 renal): 5.5 µM
TGI (HL-60(TB) leukemia): > 100 µM
TGI (A549 NSCLC): 27.4 µM
TGI (SF-295 CNS): 19.3 µM
TGI (MDA-MB-231 breast): 34.1 µM

Brc1c2nc3ccccc3nc2n2ccc3ccccc3c12
TGI (KM12 colon): > 100 µM
TGI (SK-MEL-5 melanoma): > 100 µM
TGI (HCT-15 colon): > 100 µM
TGI (HCC-2998 colon): > 100 µM
TGI (786-0 renal): > 100 µM
TGI (HL-60(TB) leukemia): > 100 µM
TGI (A549 NSCLC): > 100 µM

O=C(/C=C/c1ccc(OCc2ccccc2)cc1)NCc1ccc(C(=O)NCc2ccccc2)cc1
TGI (KM12 colon): > 100 µM
TGI (SK-MEL-5 melanoma): > 100 µM
TGI (MDA-MB-435): > 100 µM
TGI (HCT-15 colon): > 100 µM
TGI (HCC-2998 colon): > 100 µM
TGI (786-0 renal): > 100 µM
TGI (A549 NSCLC): > 100 µM
TGI (SF-295 CNS): > 100 µM
TGI (MDA-MB-231 breast): > 100 µM

CC1(C)Oc2ccc3c(=O)cc(-c4cccs4)oc3c2C1C(=O)O (configuration not stated)
TGI (SK-MEL-5 melanoma): > 100 µM
TGI (MDA-MB-435): > 100 µM
TGI (HCC-2998 colon): > 100 µM
TGI (786-0 renal): > 100 µM
TGI (HL-60(TB) leukemia): > 100 µM
TGI (A549 NSCLC): > 100 µM
TGI (SF-295 CNS): > 100 µM
TGI (MDA-MB-231 breast): > 100 µM

COc1cccc2c1C(=O)c1c(O)c3c(c(O)c1C2=O)C[C@@](O)(C(=O)CN1CCOCC1)C[C@@H]3OC1CC(N)C(O)C(C)O1 (some centres not stated)
TGI (KM12 colon): 51.5 µM
TGI (SK-MEL-5 melanoma): 15.7 µM
TGI (HCT-15 colon): 77.6 µM
TGI (HCC-2998 colon): 23.3 µM
TGI (HL-60(TB) leukemia): 5.19 µM
TGI (A549 NSCLC): 48.6 µM
TGI (SF-295 CNS): 39.3 µM

O=C(NNS(=O)(=O)c1ccc(Br)cc1)c1ccc(Cl)cc1NC(=O)C12CC3CC(CC(C3)C1)C2
TGI (KM12 colon): 85.7 µM
TGI (SK-MEL-5 melanoma): 23.2 µM
TGI (MDA-MB-435): 25.8 µM
TGI (HCT-15 colon): 45.4 µM
TGI (786-0 renal): 40 µM
TGI (HL-60(TB) leukemia): 67.9 µM
TGI (A549 NSCLC): 21.4 µM
TGI (SF-295 CNS): 29.3 µM

C/C=C/c1cc2c(c(=O)o1)C(=O)[C@@H](O)[C@H](C)O2
TGI (KM12 colon): 31 µM
TGI (SK-MEL-5 melanoma): 29.4 µM
TGI (HCT-15 colon): 25.9 µM
TGI (HCC-2998 colon): 24 µM
TGI (HL-60(TB) leukemia): 54.4 µM
TGI (A549 NSCLC): 34.3 µM
TGI (SF-295 CNS): 41.6 µM

N/C(=N\S(=O)(=O)c1ccc(-c2ccccn2)s1)Nc1ccc(Cl)cc1
TGI (KM12 colon): 70.4 µM
TGI (SK-MEL-5 melanoma): 30.6 µM
TGI (HCT-15 colon): 38 µM
TGI (786-0 renal): 29.4 µM
TGI (A549 NSCLC): 47.2 µM
TGI (SF-295 CNS): 40.3 µM
TGI (MDA-MB-231 breast): 27.9 µM

CCCCC(=C=C(C)CO)C1CCCN1C(=O)OC(C)(C)C (configuration not stated)
TGI (KM12 colon): 34.8 µM
TGI (SK-MEL-5 melanoma): 29.8 µM
TGI (MDA-MB-435): 35.8 µM
TGI (HCT-15 colon): 39 µM
TGI (HCC-2998 colon): 20.3 µM
TGI (786-0 renal): 30.5 µM
TGI (HL-60(TB) leukemia): 32.5 µM
TGI (A549 NSCLC): 48.1 µM
TGI (SF-295 CNS): 31.7 µM
TGI (MDA-MB-231 breast): 34 µM

C[N+](C)=c1ccc2nc3c(ccc4ccccc43)oc-2c1
TGI (KM12 colon): 32.2 µM
TGI (SK-MEL-5 melanoma): 27.5 µM
TGI (HCT-15 colon): 34.6 µM
TGI (HCC-2998 colon): 37.7 µM
TGI (786-0 renal): 28.9 µM
TGI (HL-60(TB) leukemia): 6.32 µM
TGI (A549 NSCLC): 37.1 µM
TGI (SF-295 CNS): 29 µM

COc1ccc(C2S/C(=C\c3cccc(OC)c3)C(=O)N2NC(=O)Cc2ccccc2)cc1 (configuration not stated)
TGI (KM12 colon): > 100 µM
TGI (SK-MEL-5 melanoma): > 100 µM
TGI (HCT-15 colon): > 100 µM
TGI (786-0 renal): > 100 µM
TGI (HL-60(TB) leukemia): > 100 µM
TGI (A549 NSCLC): > 100 µM
TGI (SF-295 CNS): > 100 µM

COC(=O)CCCC1(CCCC(=O)OC)CCCCCCCCC(CCCC(=O)OC)(CCCC(=O)OC)C(=O)C1=O
TGI (KM12 colon): > 100 µM
TGI (SK-MEL-5 melanoma): > 100 µM
TGI (MDA-MB-435): > 100 µM
TGI (HCT-15 colon): > 100 µM
TGI (HCC-2998 colon): > 100 µM
TGI (786-0 renal): 33.5 µM
TGI (HL-60(TB) leukemia): 12.2 µM
TGI (A549 NSCLC): 29.9 µM
TGI (SF-295 CNS): > 100 µM

CO[C@H]1CC[C@]2(C)C3=CC[C@@]4(C)C(CC[C@@H]4C(C)CC[C@@H](C)C(C)C)C(=CCC2C1)O3 (some centres not stated)
TGI (KM12 colon): > 25 µM
TGI (SK-MEL-5 melanoma): > 25 µM
TGI (HCT-15 colon): > 25 µM
TGI (HCC-2998 colon): > 25 µM
TGI (786-0 renal): > 25 µM
TGI (HL-60(TB) leukemia): > 25 µM
TGI (A549 NSCLC): > 25 µM
TGI (SF-295 CNS): > 25 µM

C=C1C(=O)[C@]23C[C@H]1C[C@@H](O)[C@H]2[C@]1(COC3=O)[C@@H](OC(C)=O)CC[C@@](C)(COC(C)=O)[C@H]1C=O
TGI (KM12 colon): > 50 µM
TGI (SK-MEL-5 melanoma): > 50 µM
TGI (MDA-MB-435): > 50 µM
TGI (HCT-15 colon): > 50 µM
TGI (HCC-2998 colon): > 50 µM
TGI (786-0 renal): > 50 µM
TGI (HL-60(TB) leukemia): 16.6 µM
TGI (A549 NSCLC): > 50 µM
TGI (SF-295 CNS): > 50 µM
TGI (MDA-MB-231 breast): > 50 µM

C[C@]12C(=O)C=CCC1=CC[C@@H]1[C@@H]2[C@H]2CC3(O)C(=O)O[C@@]4(C)[C@H]5C[C@@]6(C)[C@@H]7[C@@]2(O)[C@]1(OC[C@H]6C(=O)O5)O[C@]734 (some centres not stated)
TGI (KM12 colon): > 100 µM
TGI (SK-MEL-5 melanoma): > 100 µM
TGI (MDA-MB-435): > 100 µM
TGI (HCT-15 colon): > 100 µM
TGI (786-0 renal): > 100 µM
TGI (HL-60(TB) leukemia): > 100 µM
TGI (A549 NSCLC): > 100 µM
TGI (SF-295 CNS): > 100 µM
TGI (MDA-MB-231 breast): > 100 µM

COc1cc(S(=O)(=O)Nc2ccc(-c3csc(N4C(=O)C(Cl)C4c4cccc(Oc5ccccc5)c4)n3)cc2)ccc1Cl (configuration not stated)
TGI (KM12 colon): 73.9 µM
TGI (SK-MEL-5 melanoma): > 100 µM
TGI (MDA-MB-435): 39.7 µM
TGI (HCT-15 colon): > 100 µM
TGI (HCC-2998 colon): > 100 µM
TGI (786-0 renal): 26.5 µM
TGI (HL-60(TB) leukemia): 41.7 µM
TGI (A549 NSCLC): > 100 µM
TGI (SF-295 CNS): > 100 µM

O=C(CNc1nccs1)Nn1cnc2ccc(S(=O)(=O)Nc3nccs3)cc2c1=O
TGI (KM12 colon): > 100 µM
TGI (MDA-MB-435): > 100 µM
TGI (HCT-15 colon): > 100 µM
TGI (HCC-2998 colon): > 100 µM
TGI (786-0 renal): > 100 µM
TGI (HL-60(TB) leukemia): > 100 µM
TGI (A549 NSCLC): > 100 µM
TGI (SF-295 CNS): > 100 µM
TGI (MDA-MB-231 breast): > 100 µM
